Assays:
[1] = system: melanocortin receptors; details: lactam bridge template; cited from earlier work
[2] = system: mouse MC1 and MC3-5 receptors

Row | Substance | agonist activity at the melanocortin receptors [1] | MC4R versus MC3R selectivity ([2]; from EC50 values of Table 2) | agonist efficacy at all the melanocortin receptor isoforms examined ([2]; mMC1R, mMC3R, mMC4R, mMC5R, maximal efficacy compared to NDP-MSH control)
1 | Tyr-c[β-Asp-His-DPhe-Arg-Trp-Asn-Ala-Phe-Dpr]-Tyr-NH2 (sidechain bridge or staple) | full agonist at the melanocortin receptors that is as potent as the endogenous α-MSH agonist | – | –
2 | Tyr-c[Cys-His-D-Phe-(R)-MIM(Arg)-Trp-Asn-Ala-Phe-Cys]-Tyr-NH2 [compound 7] | – | 5 fold | full agonists

Source: paper PMC3076140 (Journal of medicinal chemistry, 2011)
